Like-named read-outs stand apart in the source and are kept apart here.
Legend:
asthma patients [1] = assay: Phase II clinical study CEP-1347-201: peak expiratory flow rate (PEFR; ANCOVA at week 8 and longitudinal model of daily PEFR); assay type: in vivo, human; settings: p=0.15; dose-response shape very similar to morning PEFR
mice = settings: cited from earlier work
[2] = system: subjects with Parkinson disease; assay: Rhinitis episodes in subjects with Parkinson disease on CEP-1347; assay type: in vivo, human
Excerpt: In a study examining for association of the MAP3K9 gene and Allergic Rhinitis, deCODE found an association of certain MAP3K9 haplotypes (Table 7A) with Allergic Rhinits, with RR of approximately 1.4 for each allele carried (p<0.05). The risk was highest in a subgroup of subjects with Allergic Rhinitis alone (RR of 1.6 and p=0.005). Additional support that the MAP3K9 gene may play a role in Allergic Rhinits comes from a study conducted on subjects with Parkinson disease. […] Indeed, none of the subjects in the 50 mg dose group (n=198) developed rhinitis whereas 6 subjects in the placebo group (n=191) developed rhinitis (p=0.01).

asthma patients [3] = assay: Phase II clinical study CEP-1347-201: asthma exacerbations and airway remodeling; assay type: in vivo, human
Excerpt: However, given the near normal lung function of the population evaluated in this exploratory Phase 2 trial, positive trends can only be established with respect to the effects of CEP-1347 in asthma due to lack of statistical significance in certain aspects of the study. Furthermore, the trial patient numbers for at-risk haplotype carriers were not large enough to achieve significant power to adequately test the effect on these haplotype positive patients. The asthma patients enrolled into CEP-1347-201 were well treated with near normal lung function and any apparent lack of treatment effect could be attributed, in part, to deficiencies in study design as opposed to a lack of CEP-1347 effect.
The term “airway remodeling” in bronchial asthma refers to structural changes that occur in conjunction with, or because of, chronic airway inflammation. Airway remodeling results in alterations in the airway epithelium, lamina propria, and submucosa, leading to thickening of the airway wall. Another common attribute of asthmatic airways is eosinophilia. Eosinophils expressing the CCR3 chemokine receptor are drawn from pulmonary circulation primarily by Eotaxin/CCL11, which is overexpressed in asthmatic respiratory membrane epithelial cells, fibroblasts, and smooth muscle cells. […]

asthma patients [4] = assay: Phase II clinical study CEP-1347-201: spirometry FEV/FVC; assay type: in vivo, human; settings: patients with near normal lung function at baseline
Excerpt: The overall mean baseline percent predicted FEV1 (forced expiratory […] in 1 second) and FEV1 values for the study were 96% and 2.9 liters, respectively.

asthma patients [5] = assay: Phase II clinical study CEP-1347-201: peak expiratory flow rate (PEFR; ANCOVA at week 8 and longitudinal model of daily PEFR); assay type: in vivo, human; settings: for PEFR Change from Baseline at Week 8, LS Mean: ANCOVA; for Mean model predicted PEFR adjusted for baseline percent predicted PEFR, mean: morning PEFR
Excerpt: Two analyses of PEFR were pre-specified in the SAP, an ANCOVA analysis of the change from baseline at week 8 and a model based longitudinal analysis of the daily PEFR measurements. Results from an ANCOVA (analysis of covariance) including treatment group as a factor and the baseline value as a covariate are presented in Table 19. The ANCOVA results reported in Table 19 were limited to change from baseline at week 8 PEFR measurements from office based spirometry assessments. Patients were also instructed to perform peak flow rate assessments at home, once in the morning and once in the evening using a hand-held peak flow device. PEFR measures were then recorded by the patient into a diary. A total of 6878 morning (5 am-12 noon) observations were collected from 149 patients during the treatment phase of the study (56 days in duration) corresponding to approximately 46.2 observations per subject. […] The endpoint used in this analysis was change from baseline in morning PEFR. While the model based analysis can be difficult to understand, this approach takes advantage of the rich daily PEFR data set (6878 observations) whereas the ANCOVA was limited to the week 8 PEFR (146 observations). The model included a placebo and treatment component. […] This common phenomenon is typically referred to as “regression to the mean”. In addition, the onset of this placebo effect appeared to occur over time. Therefore, a rate constant was added to the model to account for the change in placebo effect over time. […] Placeboss=θ(1)+η(1)+θ(9)*baseline % predicted PEFR (Eq. 3) Placebot=Placeboss*(1-exp(-θ(5)*DAY)) (Eq. 4) […] To allow for a less than immediate CEP-1347 effect, a rate constant controlling the onset of treatment effect was also included in the treatment model. In addition, it was assumed that the ability of a patient to responds to drug treatment was proportional to the patients baseline % predicted PEFR. In other words, patients with normal lung function at baseline would be expected to have little effect whereas those with poor lung function at baseline would be expected to have a larger effect. This model component is similar to a treatment by baseline interaction in an ANCOVA analysis. Equation describes the treatment time course model: […]=θ(n)*ROOM*(1-(-exp(-θ(10)*DAY)) (Eq. 5) Where, […] the treatment effect at time t adjusted for the patient's baseline % predicted PEFR and duration of drug therapy, θ(n) is the fixed effect associated with n treatment group; either 10, 25, or 50 mgBID treatment groups, ROOM scales the magnitude of the treatment effect based on the baseline % predicted PEFR (i.e., 1-baseline predicted; baseline by treatment interaction), θ(10) is the rate constant governing the onset of treatment effect. The overall effect at time t combines the placebo component and the drug component (Equation 6): […]=Placebot+Treatment1+ε(1) (Eq. 6) […] Model selection was done in the same manner as described for the MCT analysis. In addition, a randomization test was undertaken to more accurately determine the p value comparing the full model (run #14 included a treatment component) to the reduced model (run #5; placebo model only). […] The 5th and 95th percentiles for the predicted values were identified from the pool of predicted values to establish a 90% prediction interval around the mean model prediction (Table 21).

IL-1β = settings: lipopolysaccharide challenge; cited from earlier work
asthma patients [6] = settings: for patients reporting diarrhea: placebo 8%

For CCSCc1ccc2c(c1)c1c3c(c4c5cc(CSCC)ccc5n5c4c1n2C1CC(O)(C(=O)OC)C5(C)O1)CNC3=O (centres unmarked) [CEP-1347], the “daily evening PEFR, CEP-1347 effect in longitudinal model” value (asthma patients [1]) is given as “borderline significant”, the “protection from LPS-induced death” value (mice) is given as “provides protection” and the “subjects who developed rhinitis” value ([2]; 50 mg dose group (n=198), 6 subjects in placebo group (n=191), p=0.01) is given as “none”. For the same compound, the “AR episodes (rhinitis episodes)” value ([2]; 50 mg twice daily (bid), N=198, placebo 6 (N=191), p = 0.01) was 0, the asthma exacerbations (asthma patients [3]; 50 mg BID group, positive trend only) was “reduction of exacerbations” and the “progression of airway remodeling” value (asthma patients [3]; in particular with the 25 mg BID dose (FIG. 13)) was “Positive effects”. The “FEV/FVC (ANCOVA)” value (asthma patients [4]) was “no clear treatment related trends or statistically significant changes”, the “PEFR Change from Baseline at Week 8, LS Mean” value (shortened to “PEFR Change … LS Mean”) (asthma patients [5]; 10 mg BID, p 0.30) was 0.01 and the “PEFR Change … LS Mean” value (asthma patients [5]; 25 mg BID, p 1.0) was 0.03. For the same compound, the “PEFR Change … LS Mean” value (asthma patients [5]; 50 mg BID, p 0.77) was 0.04, the “daily morning PEFR change from baseline, longitudinal mixed effects model with CEP-1347 treatment component vs placebo only model” value (asthma patients [5]; 10, 25, 50 mg BID, 56 days, p=0.012) was “statistically significant improvement in the description of the data” and the “Mean model predicted PEFR adjusted for baseline percent predicted PEFR, mean” value (asthma patients [5]; Dose 20, BL % pred PEF 70) was 19.3. For the same compound, the “Mean model predicted PEFR adjusted for baseline percent predicted PEFR, mean” value (asthma patients [5]; Dose 20, BL % pred PEF 80) was 16.6, the “Mean model predicted PEFR adjusted for baseline percent predicted PEFR, mean” value (asthma patients [5]; Dose 20, BL % pred PEF 96) was 12.2 and the “Mean model predicted PEFR adjusted for baseline percent predicted PEFR, mean” value (asthma patients [5]; Dose 50, BL % pred PEF 70) was 38.6. The “Mean model predicted PEFR adjusted for baseline percent predicted PEFR, mean” value (asthma patients [5]; Dose 50, BL % pred PEF 80) was 29.4, the “Mean model predicted PEFR adjusted for baseline percent predicted PEFR, mean” value (asthma patients [5]; Dose 50, BL % pred PEF 96) was 14.8 and the “Mean model predicted PEFR adjusted for baseline percent predicted PEFR, mean” value (asthma patients [5]; Dose 100, BL % pred PEF 70) was 99.5. The “Mean model predicted PEFR adjusted for baseline percent predicted PEFR, mean” value (asthma patients [5]; Dose 100, BL % pred PEF 80) was 70.0, the “Mean model predicted PEFR adjusted for baseline percent predicted PEFR, mean” value (asthma patients [5]; Dose 100, BL % pred PEF 96) was 22.9 and the “production of IL-1β by mice after LPS challenge” value (IL-1β) was “reduces production”. For the same compound, the “subjects reporting a severe adverse event” value (asthma patients [6]; 10 mg BID group) was 2, the “subjects reporting a severe adverse event” value (asthma patients [6]; 25 mg BID group) was 1 and the “subjects reporting a severe adverse event” value (asthma patients [6]; 50 mg BID group) was 1. The patients reporting diarrhea (asthma patients [6]; CEP-1347 groups, all doses combined) was 15%, the “subjects reporting a severe adverse event, total” value (asthma patients [6]; all groups) was “four” and the patients reporting diarrhea (asthma patients [6]; high dose group (50 mg BID)) was 20%. The headache incidence (asthma patients [6]; treatment group (all CEP-1347 doses), placebo 5%) was 9% and the deaths (asthma patients [6]; whole study) was “no deaths”.
